Measured values taken from PubChem BioAssay AID256 (DTP/NCI, 2004).
Several values for one entry are separate records, joined by “and”; a condition that tells them apart may be missing. Identical values can stand only once. Toxic doses and inconclusive results are not listed. How the source made its calls: active means survival T/C of 150% or more; inactive means T/C below 125% in these data.

Tested on: CD2F1 mice, L1210 leukemia ip, survival T/C
Test: NCI In Vivo Anticancer Drug Screen. Data for tumor model L1210 Leukemia (intraperitoneal) in CD2F1 (CDF1) mice
Details: endpoint: mean survival time, higher = longer survival
Method in brief: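 Transplantable tumor in mice; compound-treated vs vehicle-treated groups. Read-out = treated/control ratio of the measured endpoint.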

[1] = dose: 50.0 mg/kg/injection, schedule: Q04DX003 (ip), vehicle: saline
[2] = dose: 100.0 mg/kg/injection, schedule: Q04DX003 (ip), vehicle: saline
[3] = dose: 100.0 mg/kg/injection, schedule: Q01DX001 (ip), vehicle: saline
[4] = dose: 200.0 mg/kg/injection, schedule: Q01DX001 (ip), vehicle: saline
[5] = dose: 400.0 mg/kg/injection, schedule: Q01DX001 (ip), vehicle: saline
[6] = dose: 100.0 mg/kg/injection, schedule: Q04DX003 (ip), vehicle: saline with Tween-80
[7] = dose: 200.0 mg/kg/injection, schedule: Q04DX003 (ip), vehicle: saline with Tween-80
[8] = dose: 400.0 mg/kg/injection, schedule: Q04DX003 (ip), vehicle: saline with Tween-80
[9] = dose: 12.5 mg/kg/injection, schedule: Q01DX009 (ip), vehicle: saline with Tween-80
[10] = dose: 100.0 mg/kg/injection, schedule: Q01DX001 (ip), vehicle: saline with Tween-80
[11] = dose: 100.0 mg/kg/injection, schedule: Q04DX002 (ip), vehicle: saline with Tween-80
[12] = dose: 200.0 mg/kg/injection, schedule: Q01DX001 (ip), vehicle: saline with Tween-80
[13] = dose: 200.0 mg/kg/injection, schedule: Q04DX002 (ip), vehicle: saline with Tween-80
[14] = dose: 400.0 mg/kg/injection, schedule: Q01DX001 (ip), vehicle: saline with Tween-80
[15] = dose: 400.0 mg/kg/injection, schedule: Q04DX002 (ip), vehicle: saline with Tween-80
[16] = dose: 50.0 mg/kg/injection, schedule: Q01DX009 (ip), vehicle: saline with Tween-80
[17] = dose: 200.0 mg/kg/injection, schedule: Q04DX003 (ip), vehicle: saline

Measured: T/C

C[N+](C)(C)C12CCCC1S(=O)(=O)C2 (stereo not given)
inactive: dose: 25.0 mg/kg/injection, schedule: Q04DX003 (ip), vehicle: saline 106 % of control | [1] 98 % of control | [2] 96 % of control

N=c1c2ccn(C3OC(CO)C(O)C3O)c2ncn1N (stereo not given)
inactive: dose: 12.5 mg/kg/injection, schedule: Q01DX005 (ip), vehicle: water 115 % of control | dose: 25.0 mg/kg/injection, schedule: Q01DX005 (ip), vehicle: water 110 % of control | dose: 50.0 mg/kg/injection, schedule: Q01DX005 (ip), vehicle: water 115 % of control and 116 % of control | dose: 100.0 mg/kg/injection, schedule: Q01DX005 (ip), vehicle: water 94 % of control

CS(=O)(=O)C([N+](=O)[O-])S(C)(=O)=O
inactive: [3] 101 % of control | [4] 101 % of control | [5] 97 % of control

COC1C(C)OC(OC2CC(C)(O)Cc3cc4c(c(O)c32)C(=O)c2c(O)cc3c(c2C4=O)OC2OC3(C)C(O)C(N(C)C)C2O)C(OC)C1(C)OC (stereo not given)
inactive: dose: 0.6 mg/kg/injection, schedule: Q01DX009 (ip), vehicle: other 115 % of control | dose: 1.25 mg/kg/injection, schedule: Q04DX003 (ip), vehicle: other 101 % of control | dose: 2.5 mg/kg/injection, schedule: Q04DX003 (ip), vehicle: other 109 % of control | dose: 5.0 mg/kg/injection, schedule: Q04DX003 (ip), vehicle: other 112 % of control | dose: 10.0 mg/kg/injection, schedule: Q04DX003 (ip), vehicle: other 109 % of control | dose: 20.0 mg/kg/injection, schedule: Q04DX003 (ip), vehicle: other 102 % of control

CCN(CC)C(=O)/C=C/c1ccccc1
inactive: [6] 103 % of control | [7] 101 % of control | [8] 103 % of control

CCOc1ccc(NC(=S)NC(=O)/C=C/c2ccccc2)cc1
inactive: [9] 93 % of control and 96 % of control | [10] 95 % of control | [11] 95 % of control and 98 % of control | [6] 93 % of control | [12] 100 % of control | [13] 94 % of control and 97 % of control | [7] 96 % of control | [14] 93 % of control | dose: 400.0 mg/kg/injection, schedule: Q01DX009 (ip), vehicle: saline with Tween-80 108 % of control and 111 % of control | [15] 94 % of control and 101 % of control | [8] 96 % of control

NC(=O)C(=O)N/N=C/c1ccc2c(c1)CCC2
inactive: dose: 12.5 mg/kg/injection, schedule: Q04DX003 (ip), vehicle: saline with Tween-80 97 % of control | dose: 25.0 mg/kg/injection, schedule: Q04DX003 (ip), vehicle: saline with Tween-80 94 % of control | dose: 50.0 mg/kg/injection, schedule: Q04DX003 (ip), vehicle: saline with Tween-80 92 % of control

CCCCNC(C)(C)C(SSSC(c1ccco1)C(C)(C)NCCCC)c1ccco1 (stereo not given)
inactive: [9] 102 % of control | dose: 25.0 mg/kg/injection, schedule: Q01DX009 (ip), vehicle: saline with Tween-80 96 % of control | [16] 98 % of control

C1CCC(C2CCCC[N-]2)[N-]C1.C1CCC(C2CCCC[N-]2)[N-]C1.[Cl][Ru][Cl] (stereo not given)
inactive: dose: 3.13 mg/kg/injection, schedule: Q04DX003 (ip), vehicle: distilled water + Tween-80 93 % of control | dose: 6.25 mg/kg/injection, schedule: Q04DX003 (ip), vehicle: distilled water + Tween-80 88 % of control | dose: 12.5 mg/kg/injection, schedule: Q04DX003 (ip), vehicle: distilled water + Tween-80 92 % of control | dose: 25.0 mg/kg/injection, schedule: Q04DX003 (ip), vehicle: distilled water + Tween-80 88 % of control | dose: 50.0 mg/kg/injection, schedule: Q04DX003 (ip), vehicle: distilled water + Tween-80 97 % of control

COc1ccc(C)c2nc3ccccc3nc12
inactive: [10] 98 % of control | [12] 97 % of control | [14] 98 % of control

CC(C)(C)S(=O)O
inactive: [3] 101 % of control | [4] 94 % of control | [5] 100 % of control

CS(=O)(=O)c1cnccn1
inactive: dose: 100.0 mg/kg/injection, schedule: Q04DX003 (ip), vehicle: saline sonified 93 % of control | dose: 200.0 mg/kg/injection, schedule: Q04DX003 (ip), vehicle: saline sonified 95 % of control | dose: 400.0 mg/kg/injection, schedule: Q04DX003 (ip), vehicle: saline sonified 96 % of control

O=C(Nc1ccc(-c2cc(-c3ccccc3)on2)cc1)c1ccccc1
inactive: [6] 90 % of control | [7] 88 % of control | [8] 88 % of control

Nc1ccccc1-c1nc2ccncc2[nH]1
inactive: dose: 75.0 mg/kg/injection, schedule: Q01DX001 (ip), vehicle: saline 100 % of control | dose: 150.0 mg/kg/injection, schedule: Q01DX001 (ip), vehicle: saline 98 % of control

O=C1OC(Cc2ccccc2)(c2ccccc2)c2ccccc21 (stereo not given)
inactive: [6] 88 % of control | [7] 88 % of control

CCCCCCCCCCCCOCC[N+](C/C=C/c1ccccc1)(CCO)CCO
inactive: dose: 6.25 mg/kg/injection, schedule: Q04DX003 (ip), vehicle: saline sonified 97 % of control | dose: 12.5 mg/kg/injection, schedule: Q04DX003 (ip), vehicle: saline sonified 103 % of control | dose: 25.0 mg/kg/injection, schedule: Q04DX003 (ip), vehicle: saline sonified 101 % of control

CC1Cc2c(N)cccc2C1=O (stereo not given)
inactive: [10] 98 % of control | [12] 87 % of control | [14] 91 % of control

CCCCC(Sc1nn(C2OC(COC(=O)c3ccccc3)C(OC(=O)c3ccccc3)C2OC(=O)c2ccccc2)c(=O)[nH]c1=O)C(=O)OCC (stereo not given)
inactive: dose: 12.5 mg/kg/injection, schedule: Q01DX005 (ip), vehicle: distilled water + Tween-80 101 % of control | dose: 25.0 mg/kg/injection, schedule: Q01DX005 (ip), vehicle: distilled water + Tween-80 95 % of control | dose: 50.0 mg/kg/injection, schedule: Q01DX005 (ip), vehicle: distilled water + Tween-80 97 % of control | dose: 100.0 mg/kg/injection, schedule: Q01DX005 (ip), vehicle: distilled water + Tween-80 95 % of control | dose: 200.0 mg/kg/injection, schedule: Q01DX005 (ip), vehicle: distilled water + Tween-80 94 % of control

[N-]=[N+]=C1C(=O)NC(=O)N2C3CC(O)C(COC12)O3 (stereo not given)
inactive: dose: 75.0 mg/kg/injection, schedule: Q01DX009 (ip), vehicle: saline with Tween-80 106 % of control | dose: 100.0 mg/kg/injection, schedule: Q01DX009 (ip), vehicle: saline sonified 114 % of control | [6] 101 % of control | dose: 150.0 mg/kg/injection, schedule: Q01DX009 (ip), vehicle: saline with Tween-80 108 % of control | dose: 200.0 mg/kg/injection, schedule: Q01DX009 (ip), vehicle: saline sonified 120 % of control | [7] 104 % of control | dose: 300.0 mg/kg/injection, schedule: Q01DX009 (ip), vehicle: saline with Tween-80 112 % of control | dose: 400.0 mg/kg/injection, schedule: Q01DX009 (ip), vehicle: saline sonified 121 % of control | [8] 108 % of control

CCCCC(=O)O.[Pb]
inactive: dose: 75.0 mg/kg/injection, schedule: Q01DX001 (ip), vehicle: steriod suspending solution 100 % of control | dose: 150.0 mg/kg/injection, schedule: Q01DX001 (ip), vehicle: steriod suspending solution 104 % of control | dose: 300.0 mg/kg/injection, schedule: Q01DX001 (ip), vehicle: steriod suspending solution 97 % of control

Cc1noc2nccnc12
inactive: [16] 103 % of control | dose: 100.0 mg/kg/injection, schedule: Q01DX009 (ip), vehicle: saline with Tween-80 101 % of control | [6] 94 % of control

NS(=O)(=O)c1ccc(N=Nc2ccc([As](=O)(O)O)cc2)cc1
inactive: [1] 104 % of control | [2] 101 % of control | [17] 101 % of control

COc1ccc(/C=C2/SC(=S)NC2=O)c(OC)c1OC
inactive: dose: 75.0 mg/kg/injection, schedule: Q01DX001 (ip), vehicle: other 103 % of control | dose: 150.0 mg/kg/injection, schedule: Q01DX001 (ip), vehicle: other 92 % of control | dose: 300.0 mg/kg/injection, schedule: Q01DX001 (ip), vehicle: other 103 % of control

Cc1cccc[n+]1[O-]
inactive: [2] 101 % of control | [17] 98 % of control | dose: 400.0 mg/kg/injection, schedule: Q04DX003 (ip), vehicle: saline 88 % of control

Cc1cn(CC(=O)c2cc3ccccc3[nH]2)c(=O)[nH]c1=O
inactive: [11] 93 % of control | [13] 93 % of control | [15] 101 % of control
